Measurements from the supplement of paper PMC11003180.

Key:
Assay in all cases: drug sensitivity score (DSS) from 5-dose viability curve (DSS (area-based score, 0 = no response)); higher = more sensitive (stronger viability inhibition); extreme values may be limits of the assay
[1] = tested on: MDCK wild-type - doxycycline; conditions: doxycycline: none; 72 h
In short: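 Drug sensitivity scores came from Breeze pipeline dose-response fits of CellTiter-Glo luminescence, scaled per plate between vehicle and positive controls. The assay used parental MDCK cells without doxycycline at 2000 cells/well, exposed for 72 h to 528 oncology drugs at five doses (1-10,000 nM).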

[2] = tested on: MDCK p60AmotL2-inducible + doxycycline (p60AmotL2 expressing); conditions: doxycycline: 10 ng/mL; 72 h
In short: (§1)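 Two MDCK lines, parental and doxycycline-inducible, received doxycycline at 10 ng/mL in the medium before being plated at 2000 cells/well onto a pre-spotted 384-well oncology library of 528 drugs at five doses (1-10,000 nM). Incubation lasted 72 h at 37 °C. Viability was read by CellTiter-Glo luminescence, scaled per plate between vehicle and positive controls, and converted to drug sensitivity scores through Breeze curve fitting.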

[3] = tested on: MDCK wild-type + doxycycline; conditions: doxycycline: 10 ng/mL; 72 h
In short: as §1

`C[C@H]1Oc2cc(cnc2N)-c2c(nn(C)c2C#N)CN(C)C(=O)c2ccc(F)cc21` showed a drug sensitivity score [1] of 0.1, a drug sensitivity score [2] of 2.1 and a drug sensitivity score [3] of 0.

For `CC(C)N(C[C@H]1O[C@@H](n2cnc3c(N)ncnc32)[C@H](O)[C@@H]1O)[C@H]1C[C@@H](CCc2nc3cc(C(C)(C)C)ccc3[nH]2)C1` [Pinometostat], the drug sensitivity score [1] was 0, the drug sensitivity score [2] was 0 and the drug sensitivity score [3] was 0.

`O=C(O)C1(C(=O)O)CCC1.[NH2-].[NH2-].[Pt+2]` [Carboplatin] gave a drug sensitivity score [1] of 3.6, a drug sensitivity score [2] of 5 and a drug sensitivity score [3] of 4.4.

`COc1cc2ncnc(Oc3cccc(NC(=O)Nc4cc(C(C)(C)C(F)(F)F)on4)c3)c2cc1OC` showed a drug sensitivity score [1] of 0, a drug sensitivity score [2] of 0 and a drug sensitivity score [3] of 0.

Compound `CCCCCCCCc1ccc(CCC(N)(CO)CO)cc1` [Fingolimod] has a drug sensitivity score [1] of 6.7, a drug sensitivity score [2] of 6.7 and a drug sensitivity score [3] of 8.7.

With `O=C(c1ccc(C(=O)N2CCC(N3CCCC3)CC2)c(Nc2ccccc2)c1)N1CCC(N2CCCC2)CC1` [UNC1215] the drug sensitivity score [1] was 0, the drug sensitivity score [2] was 0 and the drug sensitivity score [3] was 0.

With `Nc1nc2[nH]cnc2c(=S)[nH]1` [Thioguanine] the drug sensitivity score [1] was 1.1, the drug sensitivity score [2] was 1.5 and the drug sensitivity score [3] was 3.8.

Compound `CCNC(=O)C[C@@H]1N=C(c2ccc(Cl)cc2)c2cc(OC)ccc2-n2c(C)nnc21` [Molibresib] has a drug sensitivity score [1] of 0.9, a drug sensitivity score [2] of 9.5 and a drug sensitivity score [3] of 2.9.

`COc1ccc(C[C@H](NC(=O)[C@H](C)NC(=O)CN2CCOCC2)C(=O)N[C@@H](Cc2ccccc2)C(=O)C2(C)CO2)cc1` (stereo in doubt) [ONX-0914] was tested, and the drug sensitivity score [1] was 8.6, the drug sensitivity score [2] was 12.5 and the drug sensitivity score [3] was 10.4.

`CC(C)(O)CC(=O)NCCn1ccc2ncnc(Nc3ccc(Oc4cccc(C(F)(F)F)c4)c(Cl)c3)c21` [TAK-285] gave a drug sensitivity score [1] of 1.8, a drug sensitivity score [2] of 6.4 and a drug sensitivity score [3] of 3.1.

`O[C@H](C[C@H]1c2c(F)cccc2-c2cncn21)[C@H]1CC[C@H](O)CC1` [GDC-0919] was tested, and the drug sensitivity score [1] was 0, the drug sensitivity score [2] was 0 and the drug sensitivity score [3] was 0.

Work on `Cc1cn(-c2cc(NC(=O)c3ccc(C)c(Nc4nccc(-c5cnccn5)n4)c3)cc(C(F)(F)F)c2)cn1` [Radotinib] yielded a drug sensitivity score [1] of 0, a drug sensitivity score [2] of 0 and a drug sensitivity score [3] of 0.

`CCCCCOC(=O)Nc1nc(=O)n([C@@H]2O[C@H](C)[C@@H](O)[C@H]2O)cc1F` [Capecitabine] showed a drug sensitivity score [1] of 5.1, a drug sensitivity score [2] of 7.1 and a drug sensitivity score [3] of 7.

Compound `COc1cccc2c1C(=O)c1c(O)c3c(c(O)c1C2=O)C[C@@](O)(C(=O)CO)C[C@@H]3O[C@H]1C[C@H](N)[C@H](O)[C@H](C)O1` [Doxorubicin] has a drug sensitivity score [1] of 3.7, a drug sensitivity score [2] of 9.8 and a drug sensitivity score [3] of 8.3.

Work on `Nc1cccc2c1CN(C1CCC(=O)NC1=O)C2=O` (stereo unspecified) [Lenalidomide] yielded a drug sensitivity score [1] of 0, a drug sensitivity score [2] of 0 and a drug sensitivity score [3] of 0.

`NC(=O)NO` [Hydroxyurea] gave a drug sensitivity score [1] of 2, a drug sensitivity score [2] of 0 and a drug sensitivity score [3] of 0.

`CC(C)(C)c1cnc(CSc2cnc(NC(=O)C3CCNCC3)s2)o1` [SNS-032] showed a drug sensitivity score [1] of 16.3, a drug sensitivity score [2] of 19.1 and a drug sensitivity score [3] of 17.8.

`NC(=O)/C(=C/n1cnc(-c2cc(C(F)(F)F)cc(C(F)(F)F)c2)n1)c1cncnc1` [Eltanexor] showed a drug sensitivity score [1] of 19.6, a drug sensitivity score [2] of 19.9 and a drug sensitivity score [3] of 21.8.

`CCS(=O)(=O)Nc1ccc(Oc2ccc(F)cc2F)c(-c2cn(C)c(=O)c3[nH]ccc23)c1` [Mivebresib] showed a drug sensitivity score [1] of 18.7, a drug sensitivity score [2] of 29.9 and a drug sensitivity score [3] of 23.8.

For `Nc1ncnc2c1nc(N)n2[C@@H]1O[C@H](CO)[C@@H](O)[C@H]1O` [8-amino-adenosine], the drug sensitivity score [1] was 18.2, the drug sensitivity score [2] was 19.8 and the drug sensitivity score [3] was 18.2.

In the case of `CNC(=O)c1cc(COc2nnc(Nc3ccc(Cl)cc3)c3ccoc23)ccn1` [Telatinib], the drug sensitivity score [1] is reported as 0, the drug sensitivity score [2] is reported as 0 and the drug sensitivity score [3] is reported as 0.

Work on `COc1cccc2c1c(O)c(C(=O)N(C)c1ccc(C(F)(F)F)cc1)c(=O)n2C` [Tasquinimod] yielded a drug sensitivity score [1] of 0, a drug sensitivity score [2] of 0 and a drug sensitivity score [3] of 0.
